Source: ChEMBL document CHEMBL5360555, “Structure-based discovery of novel α-aminoketone derivatives as dual p53-MDM2/MDMX inhibitors for the treatment of cancer” (Eur J Med Chem, 2023)

Assays:
[1] = molecular target: E3 ubiquitin-protein ligase Mdm2 (Homo sapiens, UniProt Q00987); assay: Binding affinity to MDM2 (1 to 118 residues) (unknown origin) assessed as inhibition constant incubated for 1 hr measured by fluorescence polarization assay
HCT-116 [2] = assay: Antiproliferative activity against human HCT-116 cells overexpressing MDM2 assessed as cell growth inhibition incubated at 10 uM for 72 hrs by CCK-8 assay relative to control; assay type: functional
SH-SY5Y [3] = assay: Antiproliferative activity against human SH-SY5Y cells overexpressing MDMX assessed as cell growth inhibition incubated at 10 uM for 72 hrs by CCK-8 assay relative to control; assay type: functional
HCT-116 [4] = assay: Antiproliferative activity against human HCT-116 cells overexpressing MDM2 assessed as cell growth inhibition incubated for 72 hrs by CCK-8 assay; assay type: functional, cell-based; settings: HCT-116, 72 h
SH-SY5Y [5] = assay: Antiproliferative activity against human SH-SY5Y cells overexpressing MDMX assessed as cell growth inhibition incubated for 72 hrs by CCK-8 assay; assay type: functional, cell-based
Protein Mdm4 = molecular target: T1, Protein Mdm4 (Homo sapiens, UniProt O15151); assay: Binding affinity to MDMX (1 to 118 residues) (unknown origin) assessed as inhibition constant incubated for 1 hr measured by fluorescence polarization assay
T1 sequence (O15151 whole entry): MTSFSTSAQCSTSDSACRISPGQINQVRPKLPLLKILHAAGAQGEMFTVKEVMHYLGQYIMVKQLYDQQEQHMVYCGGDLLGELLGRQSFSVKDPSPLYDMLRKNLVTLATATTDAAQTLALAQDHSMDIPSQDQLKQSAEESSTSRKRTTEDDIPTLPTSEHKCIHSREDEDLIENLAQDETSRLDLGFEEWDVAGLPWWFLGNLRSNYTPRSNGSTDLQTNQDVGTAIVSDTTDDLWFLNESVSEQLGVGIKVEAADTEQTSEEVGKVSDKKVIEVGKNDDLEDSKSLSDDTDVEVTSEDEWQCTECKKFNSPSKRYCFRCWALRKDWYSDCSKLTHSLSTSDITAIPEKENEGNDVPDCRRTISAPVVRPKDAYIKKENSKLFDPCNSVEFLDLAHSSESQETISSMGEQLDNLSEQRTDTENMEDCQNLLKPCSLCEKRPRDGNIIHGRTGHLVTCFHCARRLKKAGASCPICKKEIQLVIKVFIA

[6] = Antiproliferative activity against human HCT116-p53-null cells overexpressing MDMX assessed as cell growth inhibition incubated for 72 hrs by CCK-8 assay; assay type: functional, cell-based
SJSA-1 = assay: Antiproliferative activity against human SJSA-1 cells overexpressing MDM2 assessed as cell growth inhibition incubated for 72 hrs by CCK-8 assay; assay type: functional, cell-based; settings: SJSA-1, 72 h

Sequence of E3 ubiquitin-protein ligase Mdm2 (Q00987 whole entry, the tested form may be a part): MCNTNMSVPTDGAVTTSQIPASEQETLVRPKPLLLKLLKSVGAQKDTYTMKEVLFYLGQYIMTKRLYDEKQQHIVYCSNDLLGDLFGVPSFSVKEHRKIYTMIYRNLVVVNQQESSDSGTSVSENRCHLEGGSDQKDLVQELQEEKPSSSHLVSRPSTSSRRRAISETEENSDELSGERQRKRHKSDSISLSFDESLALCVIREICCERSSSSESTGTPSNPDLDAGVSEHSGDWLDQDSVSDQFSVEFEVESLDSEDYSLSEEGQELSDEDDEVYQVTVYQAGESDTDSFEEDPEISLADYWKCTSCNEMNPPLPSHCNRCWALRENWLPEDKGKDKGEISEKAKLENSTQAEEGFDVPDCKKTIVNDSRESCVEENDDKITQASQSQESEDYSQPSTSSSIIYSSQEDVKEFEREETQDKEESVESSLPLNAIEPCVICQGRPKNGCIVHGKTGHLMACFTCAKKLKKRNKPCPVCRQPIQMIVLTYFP

O=C(c1ccc(Cl)cc1)C(Cc1ccc(Cl)nc1)C(=O)c1cc(F)ccc1F (stereo not drawn)
Ki [1]: 15.3 µM
inhibition at 10 µM (HCT-116 [2]): 39.4%
inhibition at 10 µM (SH-SY5Y [3]): 20.1%

O=C(c1ccc(Cl)cc1)C(Nc1ccccc1)c1ccccc1 (stereo not drawn)
Ki [1]: 18.3 µM
IC50 (HCT-116 [4]): > 40 µM
IC50 (SH-SY5Y [5]): > 40 µM

O=C(c1ccc(Cl)cc1)C(Nc1cccc(Cl)c1F)c1ccc(Cl)c(Cl)c1 (stereo not drawn)
Ki [1]: 2.13 µM
IC50 (HCT-116 [4]): 11.1 µM
IC50 (SH-SY5Y [5]): 11 µM

Cc1cccc(CC(C(=O)c2ccc(Cl)cc2)C(=O)c2cc(F)ccc2F)c1 (stereo not drawn)
Ki [1]: 22.5 µM
inhibition at 10 µM (HCT-116 [2]): 33.7%
inhibition at 10 µM (SH-SY5Y [3]): 24.6%

CCOc1cc(/C=C2\C(=O)N(c3ccccc3)N=C2C)cc(Cl)c1OCC(=O)OC
IC50 (SH-SY5Y [5]): 12.9 µM
Ki (Protein Mdm4): 0.78 µM

O=C(c1ccc(Cl)cc1)C(Cc1cccc(F)c1)C(=O)c1cc(F)ccc1F (stereo not drawn)
Ki [1]: 12.8 µM
inhibition at 10 µM (HCT-116 [2]): 14.3%
inhibition at 10 µM (SH-SY5Y [3]): 18.9%

O=C(c1ccc(Cl)cc1)C(Nc1ccc(F)cc1)c1ccc(F)cc1Cl (stereo not drawn)
Ki [1]: 7.34 µM
IC50 (HCT-116 [4]): 15.6 µM
IC50 (SH-SY5Y [5]): 17.2 µM

O=C(c1ccc(Br)cc1)C(Nc1ccc(Cl)cc1)c1ccc(Cl)cc1 (stereo not drawn)
Ki [1]: 13.2 µM
IC50 (HCT-116 [4]): 21.9 µM
IC50 (SH-SY5Y [5]): 20.4 µM

COC(=O)CCC(=O)N(c1ccc(Cl)cc1)C(C(=O)c1ccc(Cl)cc1)c1ccc(F)cc1Cl (stereo not drawn)
Ki [1]: 1.39 µM
IC50 (HCT-116 [4]): 19.6 µM
IC50 (SH-SY5Y [5]): 20.8 µM
IC50 [6]: 32.4 µM
IC50 (SJSA-1): 18.9 µM

O=C(c1ccccc1)C(Cc1ccccc1)C(=O)c1ccccc1
Ki [1]: 25.8 µM
inhibition at 10 µM (HCT-116 [2]): 11.2%
inhibition at 10 µM (SH-SY5Y [3]): 9.88%

O=C(O)CCC(=O)N(c1ccc(Cl)cc1)C(C(=O)c1ccc(Cl)cc1)c1ccc(F)cc1Cl (stereo not drawn)
Ki [1]: 1.07 µM
IC50 (HCT-116 [4]): 14.2 µM
IC50 (SH-SY5Y [5]): 8.13 µM
IC50 [6]: 36.4 µM
IC50 (SJSA-1): 12 µM

COc1ccc(NC(C(=O)c2ccc(Cl)cc2)c2ccc(F)cc2Cl)cc1 (stereo not drawn)
Ki [1]: 27.8 µM
IC50 (HCT-116 [4]): 30.1 µM
IC50 (SH-SY5Y [5]): 29.3 µM

COC(=O)CCCCC(=O)N(c1ccc(Cl)cc1)C(C(=O)c1ccc(Cl)cc1)c1ccc(F)cc1Cl (stereo not drawn)
Ki [1]: 0.82 µM
IC50 (HCT-116 [4]): 14.1 µM
IC50 (SH-SY5Y [5]): 13.7 µM
IC50 [6]: 37.2 µM
IC50 (SJSA-1): 12.3 µM

O=C(c1ccc(Cl)cc1)C(Cc1cc(Cl)cc(Cl)c1)C(=O)c1cc(F)ccc1F (stereo not drawn)
Ki [1]: 7.69 µM
inhibition at 10 µM (HCT-116 [2]): 33.5%
inhibition at 10 µM (SH-SY5Y [3]): 9.49%

O=C(c1ccccc1)C(Nc1ccccc1)c1ccccc1 (stereo not drawn)
Ki [1]: 38.2 µM
IC50 (HCT-116 [4]): > 40 µM
IC50 (SH-SY5Y [5]): > 40 µM

O=C(O)CCCC(=O)N(c1ccc(Cl)cc1)C(C(=O)c1ccc(Cl)cc1)c1ccc(F)cc1Cl (stereo not drawn)
Ki [1]: 0.78 µM
IC50 (HCT-116 [4]): 10.1 µM
IC50 (SH-SY5Y [5]): 11.4 µM
IC50 [6]: 29.6 µM
IC50 (SJSA-1): 9.83 µM

O=C(O)/C=C/C(=O)N(c1ccc(Cl)cc1)C(C(=O)c1ccc(Cl)cc1)c1ccc(F)cc1Cl (stereo not drawn)
Ki [1]: 1.1 µM
IC50 (HCT-116 [4]): 15.4 µM
IC50 (SH-SY5Y [5]): 15 µM
IC50 [6]: 31.3 µM
IC50 (SJSA-1): 15.6 µM

O=C(c1ccc(Cl)cc1)C(Nc1cccc(Cl)c1)c1ccc(F)cc1Cl (stereo not drawn)
Ki [1]: 6.92 µM
IC50 (HCT-116 [4]): 16.6 µM
IC50 (SH-SY5Y [5]): 14.1 µM

COc1ccc(C(=O)C(Nc2ccc(C)cc2)c2ccc(OC)cc2)cc1 (stereo not drawn)
Ki [1]: 16.5 µM
IC50 (HCT-116 [4]): 33 µM
IC50 (SH-SY5Y [5]): 32.8 µM

COC(=O)CCCC(=O)N(c1ccc(Cl)cc1)C(C(=O)c1ccc(Cl)cc1)c1ccc(F)cc1Cl (stereo not drawn)
Ki [1]: 1.15 µM
IC50 (HCT-116 [4]): 16.1 µM
IC50 (SH-SY5Y [5]): 14.2 µM
IC50 [6]: 28.2 µM
IC50 (SJSA-1): 14.9 µM

O=C(c1ccc(Cl)cc1)C(Cc1ccsc1)C(=O)c1cc(F)ccc1F (stereo not drawn)
Ki [1]: 14 µM
inhibition at 10 µM (HCT-116 [2]): 31.8%
inhibition at 10 µM (SH-SY5Y [3]): 15.3%

O=C(c1ccc(Cl)cc1)C(Nc1ccc(Cl)c(Cl)c1)c1ccc(Cl)c(Cl)c1 (stereo not drawn)
Ki [1]: 4.29 µM
IC50 (HCT-116 [4]): 12.3 µM
IC50 (SH-SY5Y [5]): 14.4 µM

COC(=O)/C=C/C(=O)N(c1ccc(Cl)cc1)C(C(=O)c1ccc(Cl)cc1)c1ccc(F)cc1Cl (stereo not drawn)
Ki [1]: 1.46 µM
IC50 (HCT-116 [4]): 18.9 µM
IC50 (SH-SY5Y [5]): 19.5 µM
IC50 [6]: 37.1 µM
IC50 (SJSA-1): 17.4 µM

O=C(c1ccc(Cl)cc1)C(Nc1ccc(Cl)cc1)c1ccc(F)c(Cl)c1 (stereo not drawn)
Ki [1]: 24.2 µM
IC50 (HCT-116 [4]): 29.2 µM
IC50 (SH-SY5Y [5]): 21.3 µM

O=C(c1ccc(Cl)cc1)C(Cc1ccc(-c2ccccc2)cc1)C(=O)c1cc(F)ccc1F (stereo not drawn)
Ki [1]: 24.5 µM
inhibition at 10 µM (HCT-116 [2]): 29.9%
inhibition at 10 µM (SH-SY5Y [3]): 13.2%

O=C(c1ccc(Cl)cc1)C(Cc1cccc(Cl)c1)C(=O)c1cc(F)ccc1F (stereo not drawn)
Ki [1]: 6.02 µM
inhibition at 10 µM (HCT-116 [2]): 51.8%
inhibition at 10 µM (SH-SY5Y [3]): 48.1%

O=C(c1ccc(Cl)cc1)C(Cc1ccc(Cl)cc1)C(=O)c1cc(F)ccc1F (stereo not drawn)
Ki [1]: 23.5 µM
inhibition at 10 µM (HCT-116 [2]): 5.64%
inhibition at 10 µM (SH-SY5Y [3]): 10.9%

O=C(c1ccc(Cl)cc1)C(Nc1ccc(Cl)cc1)c1cc(F)ccc1F (stereo not drawn)
Ki [1]: 14.9 µM
IC50 (HCT-116 [4]): 21.5 µM
IC50 (SH-SY5Y [5]): 21.8 µM

Cc1cc(Cl)cc(NC(C(=O)c2ccc(F)cc2)c2ccc(F)c(Cl)c2)c1 (stereo not drawn)
Ki [1]: 19.7 µM
IC50 (HCT-116 [4]): 18.5 µM
IC50 (SH-SY5Y [5]): 18.2 µM

O=C(c1ccc(Cl)cc1)C(Cc1cccc(C(F)(F)F)c1)C(=O)c1cc(F)ccc1F (stereo not drawn)
Ki [1]: 13.4 µM
inhibition at 10 µM (HCT-116 [2]): 48.4%
inhibition at 10 µM (SH-SY5Y [3]): 42.9%

COc1ccc(C(=O)C(Nc2ccccc2)c2ccccc2)cc1 (stereo not drawn)
Ki [1]: 25.8 µM
IC50 (HCT-116 [4]): > 40 µM
IC50 (SH-SY5Y [5]): > 40 µM

O=C(O)CCCCC(=O)N(c1ccc(Cl)cc1)C(C(=O)c1ccc(Cl)cc1)c1ccc(F)cc1Cl (stereo not drawn)
Ki [1]: 0.71 µM
IC50 (HCT-116 [4]): 10.4 µM
IC50 (SH-SY5Y [5]): 9.47 µM
IC50 [6]: 26.3 µM
IC50 (SJSA-1): 11.4 µM

O=C(c1ccc(Cl)cc1)C(Nc1ccc(Cl)cc1)c1cc(F)cc(F)c1 (stereo not drawn)
Ki [1]: 24.7 µM
IC50 (HCT-116 [4]): > 40 µM
IC50 (SH-SY5Y [5]): > 40 µM

COc1cccc(CC(C(=O)c2ccc(Cl)cc2)C(=O)c2cc(F)ccc2F)c1 (stereo not drawn)
Ki [1]: 14.6 µM
inhibition at 10 µM (HCT-116 [2]): 26.3%
inhibition at 10 µM (SH-SY5Y [3]): 18.3%

O=C(c1ccc(F)cc1)C(Nc1ccc(Cl)cc1)c1ccc(Cl)cc1 (stereo not drawn)
Ki [1]: 12.3 µM
IC50 (HCT-116 [4]): 18.8 µM
IC50 (SH-SY5Y [5]): 15 µM

O=C(c1ccc(Cl)cc1)C(Cc1ccccc1Cl)C(=O)c1cc(F)ccc1F (stereo not drawn)
Ki [1]: 15.1 µM
inhibition at 10 µM (HCT-116 [2]): 25.4%
inhibition at 10 µM (SH-SY5Y [3]): 22.7%

O=C(c1ccc(Cl)cc1)C(Nc1ccc(Cl)cc1)c1ccc(F)cc1Cl (stereo not drawn)
Ki [1]: 0.91 µM
IC50 (HCT-116 [4]): 11.7 µM
IC50 (SH-SY5Y [5]): 9.84 µM

O=C(c1ccc(Cl)cc1)C(Nc1cc(F)cc(F)c1)c1ccc(Cl)cc1F (stereo not drawn)
Ki [1]: 2.45 µM
IC50 (HCT-116 [4]): 13.3 µM
IC50 (SH-SY5Y [5]): 13.6 µM

O=C(c1ccc(Cl)cc1)C(Cc1cc2ccccc2cn1)C(=O)c1cc(F)ccc1F (stereo not drawn)
Ki [1]: 21.8 µM
inhibition at 10 µM (HCT-116 [2]): 36.7%
inhibition at 10 µM (SH-SY5Y [3]): 9.44%

Cc1cc(Cl)cc(NC(C(=O)c2ccc(Cl)cc2)c2ccc(F)c(Cl)c2)c1 (stereo not drawn)
Ki [1]: 17.4 µM
IC50 (HCT-116 [4]): 16.4 µM
IC50 (SH-SY5Y [5]): 17.5 µM

O=C(c1ccc(Cl)cc1)C(Nc1cc(F)cc(F)c1)c1ccc(Cl)c(Cl)c1 (stereo not drawn)
Ki [1]: 6.86 µM
IC50 (HCT-116 [4]): 13.5 µM
IC50 (SH-SY5Y [5]): 13.1 µM
